Biological target: Cyclin-dependent kinase 6/G1/S-specific cyclin-D3 (Homo sapiens, UniProt Q00534)
Assay: Biological Assay
Experimental: CDK6/Cyclin D3: The purpose of the CDK6/Cyclin D3 assay is to evaluate the inhibition (% inhibition, Kiapp and Ki values) in the presence of small molecule inhibitors by using a fluorescence based microfluidic mobility shift assay. […] The mobility shift assay electrophoretically separates the fluorescently labeled peptides (substrate and phosphorylated product) following the kinase reaction. Both substrate and product are measured and the ratio of these values is used to generate % conversion of substrate to product by the LabChip EZ Reader.

Cyclin-dependent kinase 6/G1/S-specific cyclin-D3, sequence (Q00534 whole entry): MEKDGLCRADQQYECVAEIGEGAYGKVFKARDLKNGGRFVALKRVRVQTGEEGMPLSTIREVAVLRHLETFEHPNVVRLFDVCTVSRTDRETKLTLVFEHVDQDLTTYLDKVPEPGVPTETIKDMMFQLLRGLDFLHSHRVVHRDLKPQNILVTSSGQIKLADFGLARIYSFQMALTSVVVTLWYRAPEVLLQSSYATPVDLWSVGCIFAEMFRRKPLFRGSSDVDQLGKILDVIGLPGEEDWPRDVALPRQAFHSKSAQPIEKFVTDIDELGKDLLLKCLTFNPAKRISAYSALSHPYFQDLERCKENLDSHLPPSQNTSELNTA
Cyclin-dependent kinase 6/G1/S-specific cyclin-D3, sequence (P30281 whole entry, further chain): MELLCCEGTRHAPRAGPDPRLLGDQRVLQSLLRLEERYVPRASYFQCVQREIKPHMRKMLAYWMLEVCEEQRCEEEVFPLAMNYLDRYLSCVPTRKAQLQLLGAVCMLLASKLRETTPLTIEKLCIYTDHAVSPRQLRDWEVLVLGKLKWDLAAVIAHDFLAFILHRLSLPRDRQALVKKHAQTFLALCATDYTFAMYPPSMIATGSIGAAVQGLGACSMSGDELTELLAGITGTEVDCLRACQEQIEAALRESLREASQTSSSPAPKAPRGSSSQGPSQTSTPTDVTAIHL

Ki: 1.4 nM
SMILES: Cc1nc2c(F)cc(-c3cc(N[C@@H]4CCN(S(C)(=O)=O)C[C@H]4O)ncc3Cl)cc2n1C(C)C [US10766884, Example E01]

Source: BindingDB's records for patent US10766884 (Pfizer Inc., 2020)
